Assay results taken from ChEMBL document CHEMBL1128788, “The development of a novel series of non-peptide tachykinin NK3 receptor selective antagonists” (Bioorg Med Chem Lett, 1995).

What was measured:
CHO = test: Inhibition of senktide-evoked increases in intracellular calcium levels in CHO cells measured using the fluorescent indicator Fura 2; type: functional, Cricetulus griseus
Substance-P receptor = Substance-P receptor (Homo sapiens, UniProt P25103); test: Compound was tested for binding affinity against human NK1 receptor
Sequence of Substance-P receptor (P25103 whole entry): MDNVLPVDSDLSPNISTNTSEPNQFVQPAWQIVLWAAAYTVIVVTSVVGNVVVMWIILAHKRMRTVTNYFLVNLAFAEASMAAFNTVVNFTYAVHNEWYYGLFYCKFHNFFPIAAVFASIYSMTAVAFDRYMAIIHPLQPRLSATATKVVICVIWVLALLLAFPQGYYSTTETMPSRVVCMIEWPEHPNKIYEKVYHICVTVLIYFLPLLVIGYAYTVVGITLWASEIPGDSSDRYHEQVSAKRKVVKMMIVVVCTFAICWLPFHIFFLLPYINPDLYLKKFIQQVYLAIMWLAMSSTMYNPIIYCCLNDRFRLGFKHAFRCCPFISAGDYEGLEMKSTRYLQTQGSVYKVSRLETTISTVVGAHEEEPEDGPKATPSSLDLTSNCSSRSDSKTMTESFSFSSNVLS

Neuromedin-K receptor = molecular target: T1, Neuromedin-K receptor (Homo sapiens, UniProt P29371); test: Compound was tested for binding affinity against human Tachykinin receptor 3 in CHO cells; type: cell-based
T1 sequence (P29371 whole entry): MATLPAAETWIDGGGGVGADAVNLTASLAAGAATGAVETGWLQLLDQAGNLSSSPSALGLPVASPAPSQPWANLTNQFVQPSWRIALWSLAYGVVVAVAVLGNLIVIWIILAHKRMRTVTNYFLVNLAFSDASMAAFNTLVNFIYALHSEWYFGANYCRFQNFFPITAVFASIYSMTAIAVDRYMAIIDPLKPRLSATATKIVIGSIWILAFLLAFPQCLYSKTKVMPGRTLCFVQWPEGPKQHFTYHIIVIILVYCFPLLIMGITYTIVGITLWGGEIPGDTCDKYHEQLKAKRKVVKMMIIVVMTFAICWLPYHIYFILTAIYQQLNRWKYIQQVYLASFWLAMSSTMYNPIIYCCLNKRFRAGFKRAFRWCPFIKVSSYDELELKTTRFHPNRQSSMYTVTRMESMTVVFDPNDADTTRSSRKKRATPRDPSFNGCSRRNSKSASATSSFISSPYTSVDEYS

Structure (SMILES)	Ke (CHO) [nM]	IC50 (Substance-P receptor) [µM]	IC50 (Neuromedin-K receptor) [µM]
CC(C)[C@H](OC(=O)N[C@](C)(Cc1ccccc1F)C(=O)NCCCCCCCNC(N)=O)c1ccccc1	2.2		
CC(NC(=O)[C@@](C)(Cc1cc2ccccc2[nH]1)NC(=O)OC(c1ccccc1)C(C)C)c1ccccc1 (stereo partly drawn)		1.4	1.2
